Measured values from publication PMC10987480, “Biological and mutational analyses of CXCR4–antagonist interactions and design of new antagonistic analogs” (Bioscience Reports, 2023).
Positions of bridges follow the written chain, without caps; N, C: chain ends. Non-standard residues stand in square brackets, D forms with d. Residues, ends and D or L forms follow the SMILES beside them. 2Nal = N[C@@H](Cc1ccc2ccccc2c1)C(=O)O; Lys(iPr) = CC(C)NCCCC[C@H](N)C(=O)O

Legend:
[1] = molecular target: T1, CXCR4 I259A (Homo sapiens, UniProt P61073, I259A); experiment: Competitive binding to CXCR4 mutant I259A (12G5, CHO cells); parameters: key to the marks not given beside the values; conditions: TM6, class of reduction vs wild-type CXCR4, 12G5 competition, averages of at least three independent experiments
T1 construct: expressed in transfected cells
Procedure: (§1) Plasmid pcDNA3-CXCR4 and mutated pcDNA3-CXCR4 were extracted and transfected into CHO cells using Lipofectamine 2000 according to the manufacturer’s guidelines. The selective medium containing G418 at a concentration of 1.2 mg/ml was applied to isolate stably transfected cells. CHO cells expressing wild-type CXCR4 and mutant CXCR4 were obtained using fluorescence-activated cell sorting (FACS).
(§2) All of the CXCR4 mutants were prepared using PCR technology. Briefly, pairs of asymmetrical primers containing the desired amino acid mutations (Supplementary Tables S1 and S2), each complementary to opposite strands of the pcDNA3–CXCR4, were designed for amplification by Q5® High-Fidelity DNA polymerase and the generation of mutated constructs. The methylated pcDNA3–CXCR4 templates were digested by DpnI. The mutated pcDNA3–CXCR4 was transformed into competent E. coli TOP10 for long-term storage and amplification.
(§3) The procedure for the CXCR4 competitive binding experiments was published previously. Briefly, CXCR4 antibody 12G5 (250 ng/ml) was incubated with 5 × 10^5 cells and varying concentrations of unlabeled compounds in a final volume of 100 μl of assay buffer (PBS with 0.5% BSA and 0.05% NaN3) in 96-well plates for 40 min on ice, after being washed with assay buffer once. The cells were incubated with FITC-conjugated second antibody IgG for 30 min on ice, then washed with assay buffer three times. The fluorescence intensity was measured for excitation at 485 nm and emission at 535 nm using multimode plate reader (PerkinElmer). The IC50 values were calculated using graphpad Prism 7. Experiments were performed at least three times.

[2] = molecular target: T2, CXCR4 F87A (Homo sapiens, UniProt P61073, F87A); experiment: Competitive binding to CXCR4 mutant F87A (12G5, CHO cells); conditions: TM2, class of reduction vs wild-type CXCR4, 12G5 competition, averages of at least three independent experiments
T2 construct: expressed in transfected cells
Procedure: as §1, §2, §3

[3] = test system: CXCR4; conditions: cited from earlier work
Text: To understand the receptor–ligand recognition mechanism involving CXCR4 and its antagonists, here in this study we conducted a series of comparative analyses of the biological activities and CXCR4 binding sites of eleven known CXCR4 antagonists, including the three mentioned above, using cell-based bioassays, CXCR4 site-directed mutagenesis and computer-aided molecular modeling. These antagonists studied here were chosen from different representative structural types including both D-peptides (i.e., HC4319, DV1, DV1 dimer, and DV3) and a representative counterpart L-peptide (i.e., V1) derived ...

[4] = molecular target: CXCR4 (Homo sapiens, UniProt P61073); experiment: Competitive CXCR4 binding assay (12G5 antibody probe), wild-type CXCR4 transfected CHO cells; parameters: expressed in transfected cells; Competitive receptor binding activity, wild-type CXCR4 (WT): key to the marks not given beside the values; conditions: for Competitive receptor binding activity, wild-type CXCR4 (WT): class relative to wild-type, 12G5 competition, stably transfected CHO cells, averages of at least three independent experiments
Procedure: The CXCR4-specific antibody, 12G5 was used as a probe for the competitive CXCR4 binding assay to evaluate the binding activity of CXCR4 antagonists.
Figure 1 Competitive CXCR4 binding curves of eleven CXCR4 antagonists The CXCR4 transfected CHO cells were incubated with different concentrations of antagonists and 250 ng/ml 12G5 antibody. The CXCR4-binding 12G5 antibody was recognized by FITC-conjugated anti-IgG second antibody. The cells treated with only second antibody were used as a negative control (0%) while cells treated with both 12G5 antibody and second antibody were used as a positive control (100%). Cells treated with CXCR4 antagonists were calculated in percentage relative to the positive and negative controls. The data were averages of at least three independent experiments and shown as mean ± standard error of the mean (S.E.M.).
as §3

[5] = molecular target: T3, CXCR4 Y116A (Homo sapiens, UniProt P61073, Y116A); experiment: Competitive binding to CXCR4 mutant Y116A (12G5, CHO cells); conditions: TM3, class of reduction vs wild-type CXCR4, 12G5 competition, averages of at least three independent experiments
T3 construct: expressed in transfected cells
Procedure: as §1, §2, §3

[6] = molecular target: T4, CXCR4 Y45A (Homo sapiens, UniProt P61073, Y45A); experiment: Competitive binding to CXCR4 mutant Y45A (12G5, CHO cells); conditions: TM1, class of reduction vs wild-type CXCR4, 12G5 competition, averages of at least three independent experiments
T4 construct: expressed in transfected cells
Procedure: as §1, §2, §3

[7] = molecular target: T5, CXCR4 R30A (Homo sapiens, UniProt P61073, R30A); experiment: Competitive binding to CXCR4 mutant R30A (12G5, CHO cells); parameters: key to the marks not given beside the values; conditions: TM1, class of reduction vs wild-type CXCR4, 12G5 competition, averages of at least three independent experiments
T5 construct: expressed in transfected cells
Procedure: as §1, §2, §3

[8] = molecular target: T6, CXCR4 N119A (Homo sapiens, UniProt P61073, N119A); experiment: Competitive binding to CXCR4 mutant N119A (12G5, CHO cells); conditions: TM3, class of reduction vs wild-type CXCR4, 12G5 competition, averages of at least three independent experiments
T6 construct: expressed in transfected cells
Procedure: as §1, §2, §3

[9] = molecular target: T7, CXCR4 Q200A (Homo sapiens, UniProt P61073, Q200A); experiment: Competitive binding to CXCR4 mutant Q200A (12G5, CHO cells); parameters: key to the marks not given beside the values; conditions: TM5, class of reduction vs wild-type CXCR4, 12G5 competition, averages of at least three independent experiments
T7 construct: expressed in transfected cells
Procedure: as §1, §2, §3

[10] = molecular target: T8, CXCR4 T117A (Homo sapiens, UniProt P61073, T117A); experiment: Competitive binding to CXCR4 mutant T117A (12G5, CHO cells); conditions: TM3, class of reduction vs wild-type CXCR4, 12G5 competition, averages of at least three independent experiments
T8 construct: expressed in transfected cells
Procedure: as §1, §2, §3

[11] = molecular target: T9, CXCR4 D171A (Homo sapiens, UniProt P61073, D171A); experiment: Competitive binding to CXCR4 mutant D171A (12G5, CHO cells); conditions: TM4, class of reduction vs wild-type CXCR4, 12G5 competition, averages of at least three independent experiments
T9 construct: expressed in transfected cells
Procedure: as §1, §2, §3

[12] = molecular target: T10, CXCR4 D262N (Homo sapiens, UniProt P61073, D262N); experiment: Competitive binding to CXCR4 mutant D262N (12G5, CHO cells); conditions: TM6, class of reduction vs wild-type CXCR4, 12G5 competition, averages of at least three independent experiments
T10 construct: expressed in transfected cells
Procedure: as §1, §2, §3

Sequence of CXCR4 (Homo sapiens, UniProt P61073) (P61073 whole entry): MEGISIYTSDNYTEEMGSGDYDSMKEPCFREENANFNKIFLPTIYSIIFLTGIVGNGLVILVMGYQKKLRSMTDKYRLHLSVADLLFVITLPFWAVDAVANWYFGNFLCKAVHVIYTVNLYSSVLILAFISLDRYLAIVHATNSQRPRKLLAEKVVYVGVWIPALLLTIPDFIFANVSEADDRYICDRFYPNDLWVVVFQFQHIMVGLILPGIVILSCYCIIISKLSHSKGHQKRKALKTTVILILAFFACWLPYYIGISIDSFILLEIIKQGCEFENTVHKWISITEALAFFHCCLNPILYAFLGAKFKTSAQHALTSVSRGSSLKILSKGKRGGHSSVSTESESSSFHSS
T6 sequence (P61073 whole entry N119A): as the sequence (P61073 whole entry) above, with N119A counted along it
T4 sequence (P61073 whole entry Y45A): as the sequence (P61073 whole entry) above, with Y45A counted along it
T5 sequence (P61073 whole entry R30A): as the sequence (P61073 whole entry) above, with R30A counted along it
T8 sequence (P61073 whole entry T117A): as the sequence (P61073 whole entry) above, with T117A counted along it
T2 sequence (P61073 whole entry F87A): as the sequence (P61073 whole entry) above, with F87A counted along it
T1 sequence (P61073 whole entry I259A): as the sequence (P61073 whole entry) above, with I259A counted along it
T7 sequence (P61073 whole entry Q200A): as the sequence (P61073 whole entry) above, with Q200A counted along it
T3 sequence (P61073 whole entry Y116A): as the sequence (P61073 whole entry) above, with Y116A counted along it
T9 sequence (P61073 whole entry D171A): as the sequence (P61073 whole entry) above, with D171A counted along it
T10 sequence (P61073 whole entry D262N): as the sequence (P61073 whole entry) above, with D262N counted along it

Row | Competitive receptor binding activity, CXCR4 I259A [1] | Competitive receptor binding activity, wild-type CXCR4 (WT) [4] | Competitive receptor binding activity, CXCR4 R30A [7] | Competitive receptor binding activity, CXCR4 Q200A [9] | IC50 ([4]; CXCR4 transfected CHO cells, 250 ng/ml 12G5, 40 min on ice, FITC second antibody, mean ± S.E.M. of at least three independent experiments, SEM, read-out: IC50 (nM), inhibition of 12G5 binding to CXCR4) [nM] | Competitive receptor binding activity, CXCR4 D262N [12] | SMILES | Competitive receptor binding activity, CXCR4 F87A [2] | Potency (in words) [3] | Competitive receptor binding activity, CXCR4 Y116A [5] | Competitive receptor binding activity, CXCR4 Y45A [6] | Competitive receptor binding activity, CXCR4 N119A [8] | Competitive receptor binding activity, CXCR4 T117A [10] | Competitive receptor binding activity, CXCR4 D171A [11] | Binding affinity (in words) [3]
1 | +++ | +++ | +++ | +++ |  |  | c1cc(CN2CCCNCCNCCCNCC2)ccc1CN1CCCNCCNCCCNCC1 [AMD3100] | ++ (10–29% reduction compared with wild-type CXCR4) | submicromolar | ++ (10–29% reduction compared with wild-type CXCR4) | ++ (10–29% reduction compared with wild-type CXCR4) | +++ | +++ | + (30–60% reduction compared with wild-type CXCR4) | 
2 |  | +++ | +++ |  | 135 ± 63.9 | +++ | CC(C)NCCCC[C@H](NC(=O)[C@H]1CCC(=O)N[C@@H](Cc2ccccc2)C(=O)N[C@@H](Cc2ccc(O)cc2)C(=O)N[C@@H](CCCCNC(C)C)C(=O)N[C@H](CCCNC(=N)N)C(=O)N[C@@H](Cc2ccc3ccccc3c2)C(=O)NCC(=O)N1)C(N)=O [LY2510924] (FY[Lys(iPr)][dR][2Nal]G[dE][Lys(iPr)]-NH2; lactam N-7 (inferred)) |  |  |  | + (30–60% reduction compared with wild-type CXCR4) | + (30–60% reduction compared with wild-type CXCR4) | + (30–60% reduction compared with wild-type CXCR4) |  | subnanomolar
